From patent publication US20260053861A1, “CELL COMPOSITIONS AND METHODS OF USING THE SAME” (THE REGENTS OF THE UNIVERSITY OF CALIFORNIA, priority 2022, published 2026)
Structures can show the parent of a compound that is named as a salt.

These compounds were tested on hPSC-SCs. Settings: not given.

| Structure (SMILES) | z.score.t |
| --- | --- |
| COc1ccc2c(c1)[C@]13CCCC[C@@H]1[C@H](C2)N(C)CC3 | 1.28 |
| COc1cc2c(cc1OC)C(C)NCC2.Cl (stereo not shown) | 0.3024 |
| CN1CCc2cccc3c2[C@H]1Cc1ccc(O)c(O)c1-3.CN1CCc2cccc3c2[C@H]1Cc1ccc(O)c(O)c1-3.Cl.Cl.O | −1.904 |
| CN(N=O)C(=O)N[C@H]1C(O)O[C@H](CO)[C@@H](O)[C@@H]1O (mixture of isomers) [Streptozotocin] | 0.03421 |
| Cl.NCC(O)c1ccc(O)cc1 (racemic) [(+, −)-Octopamine hydrochloride] | 0.6574 |
| CNCC(O)c1ccc(O)cc1 (racemic) [(+, −)-Synephrine] | −0.2329 |
| O=C(O)C1CCCNC1 (racemic) [(ñ)-Nipecotic acid] | −0.7376 |
| NCC(CC(=O)O)c1ccc(Cl)cc1 (racemic) [Baclofen (R,S)] | 1.088 |
| Nc1c2c(nc3ccccc13)CCCC2O.O=C(O)/C=C\C(=O)O (racemic) [Hydroxytacrine maleate (R,S)] | 0.713 |
| COc1ccc(CC2c3cc(OC)c(OC)cc3CCN2C)cc1OC (racemic) [Laudanosine (R,S)] | −0.3319 |
| CC(=O)NC1CCSC1=O (racemic) [N-Acetyl-DL-homocysteine Thiolactone] | 0.0116 |
| CN1CCC2(C)c3cc(O)ccc3N(C)C12.O=C(O)/C=C/C(=O)O (single isomer, unassigned; (-)) [(−)-Eseroline fumarate salt] | −1.336 |
| CC(=C(CCO)SSCC1CCCO1)N(C=O)Cc1cnc(C)nc1N (stereo in doubt) [Fursultiamine Hydrochloride] | 1.483 |
| C[C@]12CC[C@@H](O)C[C@H]1CC[C@@H]1[C@@H]2CC[C@]2(C)C(=O)CC[C@@H]12 [3-alpha-Hydroxy-5-beta-androstan-17-one] | −0.1014 |
| CN1C2CC(=O)CC1C(O)C2 (stereo not shown) [6-Hydroxytropinone] | −0.3867 |
| COc1ccc2c(c1OC)CN1CCc3cc4c(cc3C1C2)OCO4 (stereo not shown) [(d,l)-Tetrahydroberberine] | 2.041 |
| CCN1C[C@]2(COC)[C@H](O)C[C@H](OC)[C@@]34[C@@H]5C[C@@]6(O)[C@H](OC(=O)c7ccccc7)[C@@H]5[C@@](OC(C)=O)([C@@H]([C@H](OC)[C@H]23)[C@@H]14)[C@@H](O)[C@@H]6OC [Aconitine] | −0.2486 |
| Nc1ncnc2c1ncn2[C@@H]1O[C@H](COP(=O)(O)O)[C@@H](O)[C@H]1O.O [Adenosine 5′-monophosphate monohydrate] | 1.049 |
| C[C@]12CCC(=O)C=C1CC[C@@H]1[C@@H]2C(=O)C[C@]2(C)C(=O)CC[C@@H]12 [Adrenosterone] | 1.101 |
| CC[C@H]1[C@@H]2C[C@H]3[C@@H]4N(C)c5ccccc5[C@]45C[C@@H]([C@H]2[C@H]5O)N3[C@@H]1O [Ajmaline] | 0.1767 |
| CCCSc1ccc2nc(NC(=O)OC)[nH]c2c1 [Albendazole] | −1.079 |
| CCC(=O)OCC(=O)[C@@]1(OC(=O)CC)[C@H](C)C[C@H]2[C@H]3[C@H]([C@@H](O)C[C@@]21C)[C@@]1(C)C=CC(=O)C=C1C[C@H]3Cl [Alclometasone dipropionate] | 1.456 |
| C=CC[N@@+]12CC[C@@]34c5ccccc5N5/C=C6/[C@H]7C[C@H]8[C@@]9(CC[N@@+]8(CC=C)C/C7=C/CO)c7ccccc7N(/C=C(/[C@@H](C[C@@H]31)/C(=C\CO)C2)[C@H]54)[C@@H]69.[Cl-].[Cl-] [Alcuronium chloride] | −0.8925 |
| CC(=O)OCC(=O)[C@H]1CC[C@H]2[C@@H]3CC[C@H]4C[C@H](O)CC[C@]4(C)[C@H]3C(=O)C[C@]12C [Alfadolone acetate] | 0.3651 |
| NCCCCCC(=O)O [Aminocaproic acid] | −0.4749 |

Same assay, conditions: HTS viability of hPSC-SCs in the presence of 30 mM glucose; Prestwick library; Table S4

| Structure (SMILES) | z.score.t |
| --- | --- |
| Cc1ccc(Cl)c(Nc2ccccc2C(=O)O)c1Cl | −1.427 |
| CC(C)NCC(O)c1cc(O)cc(O)c1.CC(C)NCC(O)c1cc(O)cc(O)c1.O=S(=O)(O)O (stereo not shown) | 0.4451 |
| O=C(O)Cc1cc(I)c(Oc2ccc(O)c(I)c2)c(I)c1 | 0.4486 |
| CN(Cc1cnc2nc(N)nc(N)c2n1)c1ccc(C(=O)N[C@@H](CCC(=O)O)C(=O)O)cc1 (racemic) [Amethopterin (R,S)] | 0.3845 |
| CC(=O)NC(CC(=O)O)C(=O)O (racemic) [Aspartic acid, N-acetyl (R,S)] | 0.006455 |
| O.Oc1cc(O)c2c(c1)OC(c1ccc(O)c(O)c1)C(O)C2 (racemic) [Catechin-(+, −) hydrate] | 0.2361 |
| OCC(O)CN1CCN(c2ccccc2)CC1 (racemic) [Dropropizine (R,S)] | 0.7162 |
| COCCc1ccc(OCC(O)CNC(C)C)cc1.COCCc1ccc(OCC(O)CNC(C)C)cc1.O=C(O)C(O)C(O)C(=O)O (racemic) [Metoprolol-(+, −) (+)-tartrate salt] | 1.223 |
| CC(C)NCC(O)c1ccc(O)c(O)c1.Cl (single isomer, unassigned; (-)) [(−)-Isoproterenol hydrochloride] | −0.1043 |
| CC(=O)NC1[C@@H](O)OC(CO)[C@@H](O)[C@H]1O[C@H](C)C(=O)O (stereo in doubt) [Muramic acid, N-acetyl] | 1.616 |
| Nc1ccccc1S(N)(=O)=O [2-Aminobenzenesulfonamide] | 1.43 |
| Clc1cnccn1 [2-Chloropyrazine] | 0.2112 |
| CC(=O)Nc1cc2ccccc2oc1=O [3-Acetamidocoumarin] | −1.551 |
| CC(=O)c1cc2ccccc2oc1=O [3-Acetylcoumarin] | −0.7757 |
| c1coc(CNc2ncnc3nc[nH]c23)c1 [6-Furfurylaminopurine] | −0.7183 |
| CC(C)(C)NC[C@@H](O)COc1cccc2c1CCCC2=O.Cl [(+) -Levobunolol hydrochloride] | 1.281 |
| CC(C)NC[C@@H](O)c1ccc(O)c(O)c1.O=C(O)C(O)C(O)C(=O)O [(+)-Isoproterenol (+)-bitartrate salt] | 0.1019 |
| COc1ccc2cc([C@@H](C)C(=O)[O-])ccc2c1.[Na+] [(R) -Naproxen sodium salt] | −0.3895 |
| CC(C)NC[C@@H](O)COc1ccc(CC(N)=O)cc1 [(R)-(+)-Atenolol] | −0.9395 |
| CC(C)NC[C@@H](O)COc1cccc2ccccc12.Cl [(R)-Propranolol hydrochloride] | −0.04682 |
| N[C@H]1CONC1=O [(S)-(−)-Cycloserine] | −0.3729 |
| CC(C)(C)NC[C@H](O)COc1cccc2c1CCCC2=O.Cl [(−) -Levobunolol hydrochloride] | 0.8283 |
| C=C[C@H]1CN2CC[C@H]1C[C@H]2[C@H](O)c1ccnc2ccccc12 [(−)-Cinchonidine] | 1.595 |
| COc1ccc(-c2cc(=O)c3c(O)cc(O)cc3o2)cc1 [Acacetin] | −0.03362 |
| CCCC(=O)Nc1ccc(OCC(O)CNC(C)C)c(C(C)=O)c1 (stereo not shown) [Acebutolol hydrochloride] | 0.3206 |
| O=C(O)COC(=O)Cc1ccccc1Nc1c(Cl)cccc1Cl [Aceclofenac] | 0.08508 |

| Structure (SMILES) | z.score.t |
| --- | --- |
| COc1ccc2c(c1)c(CC(=O)OCC(=O)O)c(C)n2C(=O)c1ccc(Cl)cc1 [Acemetacin] | −1.873 |
| CC(=O)CC(c1ccc([N+](=O)[O-])cc1)c1c(O)c2ccccc2oc1=O (stereo not shown) [Acenocoumarol] | −0.2425 |
| CC(=O)Nc1ccc(O)cc1 [Acetaminophen] | −0.3023 |
| CC(=O)Nc1nnc(S(N)(=O)=O)s1 [Acetazolamide] | 0.8639 |
| CC(=O)c1ccc(S(=O)(=O)NC(=O)NC2CCCCC2)cc1 [Acetohexamide] | 0.5856 |
| CC(=O)c1ccc2c(c1)N(CCCN(C)C)c1ccccc1S2.O=C(O)/C=C\C(=O)O [Acetopromazine maleate salt] | 0.1979 |
| CC(=O)Oc1ccccc1C(=O)Oc1ccccc1C(=O)O [Acetylsalicylsalicylic acid] | 0.3922 |
| Nc1nc2c(ncn2COCCO)c(=O)[nH]1 [Acyclovir] | 0.2916 |
| NC12CC3CC(CC(C3)C1)C2.NC12CC3CC(CC(C3)C1)C2.O=C(O)/C=C/C(=O)O [Adamantamine fumarate] | −0.4942 |
| CCN(CC)CCOC(=O)C(c1ccccc1)c1ccccc1 [Adiphenine hydrochloride] | −0.765 |
| COC(=O)C1=CO[C@@H](C)[C@H]2CN3CCc4c([nH]c5ccccc45)[C@@H]3C[C@H]12.Cl [Ajmalicine hydrochloride] | −0.6111 |
| CCCCC(CC)CNC(=N)NC(=N)NCCCCCCNC(=N)NC(=N)NCC(CC)CCCC (stereo not shown) [Alexidine dihydrochloride] | −1.733 |
| COc1cc2nc(N(C)CCCNC(=O)C3CCCO3)nc(N)c2cc1OC (stereo not shown) [Alfuzosin hydrochloride] | −1.061 |
| C=CCN1CCCC1CNC(=O)c1cc2[nH]nnc2cc1OC (stereo not shown) [Alizapride HCl] | 0.5437 |
| NC(=O)NC1NC(=O)NC1=O (stereo not shown) [Allantoin] | 0.8036 |
| C=CCc1ccccc1OCC(O)CNC(C)C (stereo not shown) [Alprenolol hydrochloride] | −0.2572 |
| CCCCC[C@H](O)/C=C/[C@H]1[C@H](O)CC(=O)[C@@H]1CCCCCCC(=O)O [Alprostadil] | 0.3375 |
| C=CCSCC1Nc2cc(Cl)c(S(N)(=O)=O)cc2S(=O)(=O)N1 (stereo not shown) [Althiazide] | −0.1239 |
| CN(C)c1nc(N(C)C)nc(N(C)C)n1 [Altretamine] | −0.7567 |
| Nc1c(Br)cc(Br)cc1CN[C@H]1CC[C@H](O)CC1 [Ambroxol hydrochloride] | 0.837 |
| Cc1c(N(C)C)c(=O)n(-c2ccccc2)n1C [Amidopyrine] | −0.2278 |
| NCC[C@H](O)C(=O)N[C@@H]1C[C@H](N)[C@@H](O[C@H]2O[C@H](CN)[C@@H](O)[C@H](O)[C@H]2O)[C@H](O)[C@H]1O[C@H]1O[C@H](CO)[C@@H](O)[C@H](N)[C@H]1O [Amikacin hydrate] | −0.4543 |
| N=C(N)NC(=O)c1nc(Cl)c(N)nc1N [Amiloride hydrochloride dihydrate] | 0.07016 |
| Nc1ccc(C(=O)NCC(=O)O)cc1 [Aminohippuric acid] | 0.8825 |
| Cn1c(=O)c2[nH]cnc2n(C)c1=O [Aminophylline] | 1.208 |
